57 molecules from patent US20260355169A1, “METHODS OF TREATING CANCERS USING ISOQUINOLINE OR 6-AZA-QUINOLINE DERIVATIVES” (Black Diamond Therapeutics, Inc., priority 2022, published 2026) can be followed below.

Structures are written as SMILES.

This assay has as its system BaF3 BRAF-KIAA1549 fusion cells. Briefly: BaF3 BRAF-KIAA1549 fusion cell proliferation assay. The format is cell-based. The conditions noted are these: Mus musculus, BaF3, 96 h, read-out: IC50, inhibition of cell growth, BaF3-BRAF:KIAA1549 Fusion. As to the method:
Retroviral Production: The BRAF-KIAA1549 fusion mutant was subcloned into pMXs-IRES-Blasticidin (RTV-016, Cell Biolabs, San Diego, CA). […]. Briefly, HEK 293T cells were plated in Poly-D-lysine coated 6-well plate (2.5×10^5 cells per well) and incubated overnight. The next day, retroviral plasmids (1 μg of BRAF-KIAA fusion mutant, 0.32 μg of pCMV-Gag-Pol and 0.165 μg pCMV-VSV-G) were mixed in 300 μL of Optimem (31985, Life Technologies). The mixture was incubated at room temperature for 5 minutes and then added to Optimem containing transfection reagent Lipofectamine (11668, Invitrogen) and incubated for 20 minutes. The mixture was then added dropwise to HEK 293T cells. The next day the medium was replaced with fresh culture medium and retrovirus was harvested at 24 hours.
Generation of BRAF-KIAA1549 fusion stable cell line: BaF3 cells were plated in V-bottom 96 well plate (COSTAR #3894) in 80 μL of RPMI/10% FBS and 0.01 ng/mL mouse IL-3, supplemented with 8 μg/mL polybrene (4×10^4 cells/well). Cells were transduced with 20 μL of BRAF-KIAA1549 fusion viral supernatant by centrifuging for 30 minutes at 1000 rpm. Cells were placed in a 37 °C incubator overnight. Next day 100 μL of RPMI/10% FBS and 0.01 ng/mL mouse IL-3 was added. After 24 hours, 100 μL of cells were transferred to a 24 well plate containing 900 μL of RPMI/10% FBS and 15 μg/mL Blasticidin. Contents of the 24 well plate were sampled for cell viability via CellTiterGlo (Promega) over a 2-week period.
Assay for cell proliferation: BaF3 BRAF-KIAA1549 fusion cells were resuspended at 1.5×10^5 c/mL in RPMI containing 10% Heat Inactivated FBS, 1% L-glutamine and dispensed in duplicate ([…]) into 384 well plates. To determine the effect of compound on cell proliferation, BaF3 BRAF-KIAA1549 fusion cells were incubated for 96 hours in the presence of vehicle control (DMSO) or compound at varying concentrations. Inhibition of cell growth was determined by luminescent quantification (Envision by Perkin Elmer) of intracellular ATP content using CellTiterGlo (Promega), according to the protocol provided by the manufacturer. To determine the IC50 values, the vehicle-treated cells were normalized as viable cells and analyzed using the CDD Vault, Collaborative Drug Discovery, Burlingame, CA (the Levenberg-Marquardt algorithm; Levenberg, K, […]; Marquardt, D., 1963).
Table A assigns each compound a code for potency in the BaF3 BRAF-KIAA1549 fusion cell proliferation assay: A, B, C, or D. According to the code, A represents an IC50 value<20 nM; B represents an IC50 value≥20 nM and <100 nM; C represents an IC50 value≥100 nM and <500 nM; and D represents an IC50 value≥500 nM.

Regarding `CNc1cc2ncc(-c3cc(NC(=O)N(C)c4cc(C(F)F)ccn4)ccc3C)cc2cn1` [compound 189], the IC50 fell in the range of 100 to 500 nM. In the case of `CNc1cc2ncc(-c3cc(NC(=O)N(C)c4ccnc(C(F)F)c4)cnc3C)cc2cn1` [compound 190], the IC50 lay in the range of 100 to 500 nM. In the case of `CNc1cc2ncc(-c3cc(NC(=O)c4cccc(C5(C#N)CC5)c4)cnc3C)cc2cn1` [compound 191], the IC50 was 20 to 100 nM. Regarding `CNc1ncc2cc(-c3cc(NC(=O)c4ccnc(C(C)(C)C#N)c4)cnc3C)cnc2c1C#N` [compound 192], the IC50 lay within 100 to 500 nM.

Take `CNc1cc2ncc(-c3cc(NC(=O)c4cccc(C(C)(C)C#N)c4)ccc3C)cc2cn1` [compound 193]: the IC50 was < 20 nM. Consider `CNc1cc2ncc(-c3cc(NC(=O)c4c[nH]c5ccccc45)cnc3C)cc2cn1` [compound 194], for which the IC50 was in the range of 20 to 100 nM. For the molecule `CNc1cc2ncc(-c3cc(NC(=O)c4cnc5n4CCC(C)C5)ccc3C)cc2cn1` (stereo not drawn) [compound 195], the IC50 is > 500 nM. For `CNc1cc2ncc(-c3cc(C(=O)Nc4cccc(C(C)(C)C#N)c4)cnn3)cc2cn1` [compound 196], the IC50 was > 500 nM. For `CNc1cc2ncc(-c3c(C)ncc(NC(=O)c4cc(C(C)(C)C#N)ccn4)c3Cl)cc2cn1` [compound 197], the IC50 is > 500 nM. On to `CNc1cc2ncc(-c3cc(NC(=O)c4cccc5c4CCCC5=O)cnc3C)cc2cn1` [compound 198], for which the IC50 is > 500 nM. In the case of `CNc1cc2ncc(-c3cc(NC(=O)c4cccc(C(C)(F)F)c4)cnc3C)cc2cn1` [compound 200], the IC50 is < 20 nM. With `CNc1cc2ncc(-c3cc(NC(=O)c4cc(C(O)C5CC5)ccn4)cnc3C)cc2cn1` (stereo not drawn) [compound 201] the figure was 20 to 100 nM; with `CNc1cc2ncc(-c3cc(NC(=O)c4cc(C(O)C(C)C)ccn4)cnc3C)cc2cn1` (stereo not drawn) [compound 202], 20 to 100 nM; with `CNc1cc2ncc(-c3cc(NC(=O)c4cc(C(NC)C(F)(F)F)ccn4)ccc3C)cc2cn1` (stereo not drawn) [compound 203], < 20 nM. With `CNc1cc2ncc(-c3cc(NC(=O)c4cnc5n4CC(C)CC5)ccc3C)cc2cn1` (stereo not drawn) [compound 204] the figure was < 20 nM; with `CNc1cc2ncc(-c3cc(NC(=O)c4cnc5n4C(C)CCC5)ccc3C)cc2cn1` (stereo not drawn) [compound 205], 100 to 500 nM.

For the molecule `CNc1cc2ncc(-c3cc(NC(=O)c4cc(C(O)(O)C(F)(F)F)ccn4)cnc3C)cc2cn1` [compound 206], the IC50 was in the range of 20 to 100 nM. Take `CNc1cc2ncc(-c3cc(NC(=O)c4cccc5c4CCC[C@H]5O)cnc3C)cc2cn1` [compound 207]: the IC50 was > 500 nM.

On to `CNc1cc2ncc(-c3cc(NC(=O)c4cnc5n4CCCC5)cnc3C)cc2cn1` [compound 209], for which the IC50 was > 500 nM.

As for `CNc1cc2ncc(-c3cc(NC(=O)c4cccc(C(O)C(F)(F)F)n4)cnc3C)cc2cn1` (stereo not drawn) [compound 210], the IC50 was > 500 nM.

On to `CNc1cc2ncc(-c3cc(NC(=O)c4nccc5c4OCCC5O)cnc3C)cc2cn1` (stereo not drawn) [compound 211], for which the IC50 was > 500 nM. Turning to `CNc1cc2ncc(-c3cc(NC(=O)c4cccc5c4CCC5=O)cnc3C)cc2cn1` [compound 212], the IC50 was > 500 nM. For `CNc1cc2ncc(-c3cc(C(=O)Nc4cc(C(C)(C)C#N)ccn4)cnn3)cc2cn1` [compound 213] the value was > 500 nM; for `CNc1cc2ncc(-c3cc(NC(=O)c4cnc5n4CCCC5C)ccc3C)cc2cn1` (stereo not drawn) [compound 214], 20 to 100 nM.

With `CNc1cc2ncc(-c3cc(NC(=O)c4cccc5c4NC(=O)C5(C)C)ccc3C)cc2cn1` [compound 215], the IC50 lay within 20 to 100 nM. With `CNc1cc2ncc(-c3cc(NC(=O)c4cnc5n4CCCC5)ccc3C)cc2cn1` [compound 216] the figure was 100 to 500 nM; with `CNc1cc2ncc(-c3cc(NC(=O)c4ccnc(C(C)(C)C#N)c4)c(F)cc3C)cc2cn1` [compound 217], 20 to 100 nM. For `CNc1cc2ncc(-c3cc(NC(=O)c4cc(C(N(C)C)C(F)(F)F)ccn4)ccc3C)cc2cn1` (stereo not drawn) [compound 218] the value was 20 to 100 nM; for `CNc1cc2ncc(-c3cc(NC(=O)c4cccc5c4CCC5O)cnc3C)cc2cn1` (stereo not drawn) [compound 219], > 500 nM.

Turning to `CNc1cc2ncc(-c3cc(NC(=O)c4cnc5n4CC(C(F)(F)F)CC5)ccc3C)cc2cn1` (stereo not drawn) [compound 220], the IC50 is 20 to 100 nM. With `CNc1cc2ncc(-c3cc(NC(=O)c4ccnc(C5(F)CC5)c4)c(F)cc3C)cc2cn1` [compound 221] the figure was 20 to 100 nM; with `CNc1cc2ncc(-c3cc(NC(=O)c4ccnc(C(C)(C)F)c4)c(F)cc3C)cc2cn1` [compound 222], 20 to 100 nM; with `CNc1cc2ncc(-c3cc(NC(=O)c4cccc(C(C)(C)C#N)c4)c(F)cc3C)cc2cn1` [compound 223], 20 to 100 nM. For `CNc1cc2ncc(-c3cc(NC(=O)c4cc(C(F)(F)F)ccn4)c(F)cc3C)cc2cn1` [compound 224] the value was 100 to 500 nM.

Consider `CNc1cc2ncc(-c3cc(NC(=O)c4cnc5n4CC(C)CC5)cnc3C)cc2cn1` (stereo not drawn) [compound 225], for which the IC50 was in the range of 20 to 100 nM. With `CNc1cc2ncc(-c3cc(NC(=O)c4ccccc4NC(C)C(F)F)cnc3C)cc2cn1` (stereo not drawn) [compound 226] the figure was 20 to 100 nM; with `CCC(C)c1ccnc(C(=O)Nc2cnc(C)c(-c3cnc4cc(NC)ncc4c3)c2)c1` (stereo not drawn) [compound 227], 20 to 100 nM; with `CNc1cc2ncc(-c3cc(NC(=O)c4noc5c4CCCC5)ccc3C)cc2cn1` [compound 228], 100 to 500 nM. In the case of `CNc1cc2ncc(-c3cc(NC(=O)c4n[nH]c5c4CCCC5)cnc3C)cc2cn1` [compound 229], the IC50 lay in the range of 20 to 100 nM. For `CNc1cc2ncc(-c3cc(NC(=O)c4cnc5n4C[C@H](C)CC5)ccc3C)cc2cn1` [compound 230], the IC50 lay within 20 to 100 nM. Regarding `CNc1cc2ncc(-c3cc(NC(=O)c4cnc5n4C[C@@H](C)CC5)ccc3C)cc2cn1` [compound 231], the IC50 lay within 20 to 100 nM. For `CNc1cc2ncc(-c3cc(NC(=O)c4cnc5n4CCCCC5)cnc3C)cc2cn1` [compound 232], the IC50 lay in the range of 100 to 500 nM.

For the molecule `CNc1cc2ncc(-c3cc(NC(=O)c4nn(C)c5c4CCCC5)cnc3C)cc2cn1` [compound 233], the IC50 is 20 to 100 nM. In the case of `CNc1cc2ncc(-c3cc(NC(=O)c4csc5c4CCCC5)cnc3C)cc2cn1` [compound 234], the IC50 lay in the range of 20 to 100 nM. On to `CNc1cc2ncc(-c3cc(NC(=O)c4csc5c4CCC(C)C5)cnc3C)cc2cn1` (stereo not drawn) [compound 235], for which the IC50 lay within 20 to 100 nM. For `CNc1cc2ncc(-c3cc(NC(=O)c4noc5c4C[C@@H](C)CC5)ccc3C)cc2cn1` [compound 236] the value was 20 to 100 nM. Take `CNc1cc2ncc(-c3cc(NC(=O)c4noc5c4C[C@H](C)CC5)ccc3C)cc2cn1` [compound 237]: the IC50 is 20 to 100 nM. In the case of `CNc1cc2ncc(-c3cc(NC(=O)c4cnc5n4CC(C(F)F)CC5)ccc3C)cc2cn1` (stereo not drawn) [compound 238], the IC50 lay in the range of 20 to 100 nM.

As for `CNc1cc2ncc(-c3cc(NC(=O)c4cccc5c4OC(C)C5)cnc3C)cc2cn1` (stereo not drawn) [compound 239], the IC50 is > 500 nM. For `CNc1cc2ncc(-c3cc(NC(=O)c4cnn(CC(F)(F)F)c4C)cnc3C)cc2cn1` [compound 240] the value was > 500 nM; for `CNc1cc2ncc(-c3cc(NC(=O)c4noc5c4CC(C(C)(C)C)CC5)cnc3C)cc2cn1` (stereo not drawn) [compound 241], 100 to 500 nM. With `CNc1cc2ncc(-c3cc(NC(=O)c4cc(C(O)CC(F)(F)F)ccn4)cnc3C)cc2cn1` (stereo not drawn) [compound 242] the figure was 20 to 100 nM; with `CNc1cc2ncc(-c3cc(NC(=O)c4cnc5n4CC(C(F)(F)F)CC5)cnc3C)cc2cn1` (stereo not drawn) [compound 243], 20 to 100 nM; with `CNc1cc2ncc(-c3cc(NC(=O)c4n[nH]c5c4CN(C)CC5)cnc3C)cc2cn1` [compound 244], > 500 nM. On to `CNc1cc2ncc(-c3cc(NC(=O)c4noc5c4CCCCC5)cnc3C)cc2cn1` [compound 245], for which the IC50 fell in the range of 20 to 100 nM.

Turning to `CNc1cc2ncc(-c3cc(NC(=O)c4noc5c4COCC5)cnc3C)cc2cn1` [compound 246], the IC50 is > 500 nM. On to `CNc1cc2ncc(-c3cc(NC(=O)c4noc5c4CC(F)(F)CC5)cnc3C)cc2cn1` [compound 247], for which the IC50 lay within 20 to 100 nM.

A word on the IC50: it is the point on the concentration scale where inhibition reaches its midpoint.
